{"source": "patent US20200002377A1", "about": "“COMPOUNDS USEFUL FOR THE TREATMENT AND/OR CARE OF THE SKIN, HAIR, NAILS AND/OR MUCOUS MEMBRANES” (LUBRIZOL ADVANCED MATERIALS, INC., priority 2016, published 2020)", "key": {"[1]": {"system": "Nuclear Factor Kappa B subunit 1 (NFKB1)", "assay": "Innate immune response gene expression in HEKa, real time PCR array", "format": "cell-based, human", "conditions": "50 μg/ml, 24 h", "experimental": "(§1) HEKa cells (Life Technologies) are seeded at 6.0×10^5 cells/well in 6-well plates and incubated in culture medium Epillfe™ with defined Growth Supplement (EDGS, Life Technologies), at 37° C. in a water-saturated atmosphere of 95% air and 5% CO2. After 24 hours of incubation under these conditions, medium is removed and cells are incubated with 50 μg/ml (w/v) of a peptide of the invention (see Table 16) in fresh culture medium keeping two wells where HEKa cells are incubated with medium only (basal conditions) at 37° C. and 5% CO2.\nAfter 24 h of incubation, the cells are lysed directly in the wells following the protocol described on the RNeasy™ Mini kit (Qiagen) according to the manufacturer's protocol. The lysed cells are homogenized and the RNases are inactivated. The genomic DNA is removed from the samples by using gDNA Eliminator spin columns (Qiagen). Then the samples are passed through special RNA binding columns (Qiagen) and, after several microcentrifugation washes to eliminate contaminants and impurities, the purified RNA is eluted with 50 μl of ultrapure water. Quantification and analysis of purity of RNA samples are performed after RNA elution with a biophotometer (Eppendorf). 1 μg of high-quality RNA is retrotranscribed with iScript™ advanced (BioRad) in a final volume of 20 μl·Complete reaction mix is incubated in a thermal cycler (Eppendorf) at 42° C. for 30 minutes, and the reactions are stopped at 85° C. for 5 minutes. Complementary DNA is amplified by qPCR in a real-time PCR thermocycler (BioRad) using SYBR®Green supermix (BioRad) and a customized plate for use with SYBR®Green (BioRad). SYBR®Green binds to double-stranded DNA molecules and emits fluorescence which is quantified and is proportional to the amount of the product in the PCR reaction. Cycling conditions in BioRad CFX96™ instrument are 95° C. for 3 minutes, followed by 40 cycles of denaturing at 95° C. for 5 seconds, annealing and elongation at 60° C. for 30 seconds. GAPDH (Glyceraldehyde 3-phosphate dehydrogenase), TBP (TATA box binding protein) and HRPT1 (hypoxanthine phosphoribosyltransferase 1) are used as endogenous controls. Fold change relative to the expression of the sample genes and reference genes is calculated using normalized expression (ΔΔ(Ct)) method with default threshold values using CFX Manager Software (BioRad).\n(§2) Genes analyzed are Chemokine (C-C motif) Ligand 5 (CCL5), Myeloid Differentiation primary response gene 88 (MyD88), Nuclear Factor Kappa B subunit 1 (NFKB1) and interferon Regulatory Factor 3 (IRF3)."}, "[2]": {"system": "Staphylococcus epidermidis", "assay": "Adherence of Staphylococcus epidermidis in keratinocytes (HaCaT) in competition with S. aureus bioparticles", "format": "cell-based", "conditions": "50 μg/ml, 24 h, basal = 0", "summary_of_the_method": "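Treated HaCaT keratinocytes incubated 30 min at 37° C with calcein AM-labelled S. epidermidis plus Alexa Fluor 594 S. aureus bioparticles, then fixed and Hoechst-stained. High-content imaging counts S. epidermidis spots, normalized to nuclei and total bacteria, then as percent of untreated cells.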"}, "[3]": {"system": "Tight Junction Protein 1 (TJP1)", "assay": "Tight junction gene expression in HEKa, real time PCR array", "conditions": "50 μg/ml, 24 hours", "experimental": "HEKa cells (Life Technologies) are seeded at 6.0×10^5 cells/well in 6-well plates and incubated in culture medium Epilife™ with defined Growth Supplement (EDGS, Life Technologies) at 37° C. in a water-saturated atmosphere of 95% air and 5% CO2. After 24 hours of incubation under these conditions, medium is removed and cells are incubated with 50 μg/ml of a peptide of the invention (see Table 12) in fresh culture medium, except for two wells where HEKa cells are incubated with medium only (basal conditions), at 37° C. and 5% CO2.\nAfter 24 hours of incubation, the cells are lysed directly in the wells following the protocol described on the RNeasy™ Mini kit (Qiagen) according to the manufacturer's protocol. The lysed cells are homogenized and the Rnases are inactivated. The genomic DNA is removed from the samples by using gDNA Eliminator spin columns (Qiagen). […] Quantification and analysis of purity of RNA samples are performed after RNA elution with a biophotometer (Eppendorf). […] SYBR Green binds to double-stranded DNA molecules and emits fluorescence which is quantified and is proportional to the amount of the product in the PCR reaction. […] Fold change relative to the expression of the sample genes and reference genes is calculated using normalized expression (ΔΔ(Ct)) method with default threshold values using CFX Manager Software (BioRad)."}, "[4]": {"system": "Reconstructed Human Epidermis (RHE)", "assay": "Lipidomic profile (UPLC-MS) of in vitro epidermal model", "format": "cell-based", "conditions": "50 μg/ml, 24 hours, vs basal conditions", "protocol": "The SkinEthic human tissue models (EpiSkin™) are removed from their agarose-nutrient solution in the multiwell plate immediately after arrival and are placed in a 6-well plate in which each well has previously been filled with SkinEthic Growth Medium (EpiSkin™). After overnight incubation at 37° C., 5% CO2, Reconstructed Human Epidermis (RHE) are treated with 50 μg/ml of peptides Ac-Glu-Glu-Met-Gln-Arg-Arg-NH2 (PEP-1), Ac-Glu-Glu-Met-Gln-Arg-Arg-Ala-NH2 (PEP-2) or Ac-Glu-Glu-Met-Gln-Arg-Arg-Ala-Asp-NH2 (PEP-3) or medium (basal conditions) for 24 hours at 37° C. and 5% CO2. After the 24 hours treatment, RHE are frozen and stored at −20° C. Each treatment is applied to five RHE per condition.\nEpidermal membrane model samples are thawed and removed from the inserts using a scalpel and transferred to homogenization tubes. Samples are mixed with sodium chloride (50 mM) and chloroform/methanol (2/1) (v:v) and homogenized. The extraction solvent is spiked with metabolites not detected in unspiked human serum extracts. After homogenizing the samples, extracts are incubated for 1 hour at −20° C. and centrifuged at 18,000×g for 15 minutes. The organic phase is then collected and dried under vacuum. Dried extracts are finally reconstituted in acetonitrile/isopropanol (1/1) (v:v), centrifuged at 18,000×g for 5 minutes and transferred to vials for UPLCs-MS analysis.\nAll data are processed using the TargetLynx™ application manager for MassLynx™ 4.1 software (Waters Corp., Milford, USA). A set of predefined retention time, mass-to-charge ratio pairs, Rt-m/z, corresponding to metabolites included in the analysis are fed into the program. Associated extracted ion chromatograms (mass tolerance window=0.05 Da) are then peak-detected and noise-reduced in both the LC and MS domains such that only true metabolite related features are processed by the software. A list of chromatographic peak areas is then generated for each sample injection and value respect to basal conditions is calculated.\nAverage of five values obtained for each peptide in relation to those obtained for basal conditions (without peptide in the medium) are shown in Table 11."}, "[5]": {"system": "tight junction (TJ) barrier in reconstructed human epidermis (RHE)", "assay": "TJ permeability assay, biotin dye penetration in RHE with SDS", "format": "cell-based", "conditions": "peptide 50 μg/ml with 0.02 mg/ml SDS, 24 hours", "protocol": "TJ permeability assay using surface biotinylation technique was performed in incubated reconstructed human epidermis (RHE) with EZ-UN Sulfo-NHS-LC-LC-Biotin from the dermal side. The aim of this study is to investigate the ability of peptides of the invention to enhance the barrier function by inhibiting diffusion of the dye through stratum granulosum in presence of sodium dodecyl sulfate (SDS) which causes functional deterioration of TJs.\nSkinEthic human tissue models (EpiSkin) are removed from their agarose-nutrient solution in a multiwell plate immediately after arrival and are placed in a 6-well plate in which each well has previously been filled with SkinEthic Growth Medium (EpiSkin). After overnight incubation at 37° C., 5% CO2, tissue models are treated with 50 μg/ml of peptide Ac-Glu-Glu-Met-Gln-Arg-Arg-Ala-NH2 (PEP-2) and a 0.02 mg/ml sodium dodecyl sulfate (SDS, Sigma) solution in growth medium, (1 ml/well). […]\nMicroscopical observations are performed with a Zeiss fluorescence microscope and photographs of each condition are taken with the associated camera. Fluorescence images of biotin are quantified as the product of its area and the intensity mean value of channel ‘EGFP’ Green (excitation: 488 nm and emission: 509 nm) and normalized by basal conditions. At least 12 representative images from each condition are collected and analyzed with the ZEN software (Zeiss). […]"}, "[6]": {"system": "stratum corneum barrier in reconstructed human epidermis (RHE)", "assay": "Toluidine blue diffusion assay in RHE with SDS", "format": "cell-based", "parameters": "key: 4: Strong; 3: Clear; 2: Moderate; 1: Slight", "conditions": "24 h, SDS 0.02 mg/ml on top layer, peptide 50 μg/ml + SDS", "protocol": "The SkinEthic human tissue models (EpiSkin) are removed from their agarose-nutrient solution in the multiwell plate immediately after arrival and are placed in a 6-well plate in which each well has previously been filled with SkinEthic Growth Medium (EpiSkin). After overnight incubation at 37° C., 5% CO2, the top layer of tissue model is treated with 100 μl of a 50 μg/ml solution of peptide Ac-Glu-Glu-Met-Gln-Arg-Arg-Ala-NH2 (PEP-2) in a 0.02 mg/ml sodium dodecyl sulfate (SDS, Sigma) solution in growth medium and dermal side of tissue model is treated with 1 ml of a 50 μg/ml solution of the same peptide in growth medium. The top layer and dermal side of a tissue model is treated with growth medium as basal condition. In another tissue model, its top layer is treated with a 0.02 mg/ml SDS solution in growth medium while its dermal side is treated with growth medium alone, both in absence of peptide, for its use as a positive control. All incubations are performed at 37° C. and 5% CO2 for 24 h.\nAfter the 24-hours treatment, the top layer of tissue models are further treated with 200 μl of methanol for 2 min at room temperature and, after that, they are rinsed twice with 200 μl of phosphate-buffered saline (PBS, Sigma). […] At least 12 representative images from each condition are collected and scored according to the ranking described in Table 14. […]"}, "[7]": {"system": "interferon Regulatory Factor 3 (IRF3)", "assay": "Innate immune response gene expression in HEKa, real time PCR array", "conditions": "50 μg/ml, 24 h", "experimental": "as §1\nAfter 24 h of incubation, the cells are lysed directly in the wells following the protocol described on the RNeasy™ Mini kit (Qiagen) according to the manufacturer's protocol. […] Quantification and analysis of purity of RNA samples are performed after RNA elution with a biophotometer (Eppendorf). […] SYBR®Green binds to double-stranded DNA molecules and emits fluorescence which is quantified and is proportional to the amount of the product in the PCR reaction. […] Fold change relative to the expression of the sample genes and reference genes is calculated using normalized expression (ΔΔ(Ct)) method with default threshold values using CFX Manager Software (BioRad).\nas §2"}}}
{"substance": "Ac-EEMQRR-OH [PEP-61, Ac-Glu-Glu-Met-Gln-Arg-Arg-OH]", "values": [{"measurement": "NFKB1 fold induction respect to basal conditions", "setting": "[1]", "result": 1.71}, {"measurement": "S. epidermidis (%), normalized percentage respect to basal conditions", "setting": "[2]", "result": 3.08, "unit": "%"}, {"measurement": "TJP1 fold induction respect to basal conditions", "setting": "[3]", "result": 1.71}]}
{"substance": "Ac-EEMQRRA-NH2 [PEP-2, Ac-Glu-Glu-Met-Gln-Arg-Arg-Ala-NH2]", "values": [{"measurement": "Cer_AP48 N-(alpha-hydroxyacyl) phytosphingosines", "setting": "[4]", "result": 1.37, "unit": "fold change"}, {"measurement": "Cer_NP48 N-acyl phytosphingosines", "setting": "[4]", "result": 1.24, "unit": "fold change"}, {"measurement": "Cer_NP49 N-acyl phytosphingosines", "setting": "[4]", "result": 1.23, "unit": "fold change"}, {"measurement": "Cer_NP50 N-acyl phytosphingosines", "setting": "[4]", "result": 1.23, "unit": "fold change"}, {"measurement": "Cer_NP51 N-acyl phytosphingosines", "setting": "[4]", "result": 1.19, "unit": "fold change"}, {"measurement": "Cer_NS50 N-acyl sphingosines", "setting": "[4]", "result": 1.18, "unit": "fold change"}, {"measurement": "Cer_NS51 N-acyl sphingosines", "setting": "[4]", "result": 1.13, "unit": "fold change"}, {"measurement": "Cer_NS52 N-acyl sphingosines", "setting": "[4]", "result": 1.37, "unit": "fold change"}, {"measurement": "Cer_NdS47 N-acyl dihydrosphingosines", "setting": "[4]", "result": 1.10, "unit": "fold change"}, {"measurement": "Cer_NdS48 N-acyl dihydrosphingosines", "setting": "[4]", "result": 1.23, "unit": "fold change"}, {"measurement": "Cer_NdS49 N-acyl dihydrosphingosines", "setting": "[4]", "result": 1.46, "unit": "fold change"}, {"measurement": "Cer_NdS50 N-acyl dihydrosphingosines", "setting": "[4]", "result": 1.50, "unit": "fold change"}, {"measurement": "penetration of biotin to stratum corneum (result in words)", "setting": "[5]", "result": "able to strengthen the tight junction (TJ) barrier"}, {"measurement": "Total score (Toluidine Blue staining)", "setting": "[6]", "result": 2}, {"measurement": "NFKB1 fold induction respect to basal conditions", "setting": "[1]", "result": 2.19}, {"measurement": "S. epidermidis (%), normalized percentage respect to basal conditions", "setting": "[2]", "result": 24.69, "unit": "%"}]}
{"substance": "Ac-EQMQRR-NH2 [PEP-50, Ac-Glu-Gln-Met-Gln-Arg-Arg-NH2]", "values": [{"measurement": "NFKB1 fold induction respect to basal conditions", "setting": "[1]", "result": 2.25}, {"measurement": "S. epidermidis (%), normalized percentage respect to basal conditions", "setting": "[2]", "result": 4.14, "unit": "%"}, {"measurement": "IRF3 fold induction respect to basal conditions", "setting": "[7]", "result": 2.25}]}
{"substance": "H-EEMQRH-NH2 [PEP-57, H-Glu-Glu-Met-Gln-Arg-His-NH2]", "values": [{"measurement": "NFKB1 fold induction respect to basal conditions", "setting": "[1]", "result": 2.49}, {"measurement": "S. epidermidis (%), normalized percentage respect to basal conditions", "setting": "[2]", "result": 13.57, "unit": "%"}, {"measurement": "IRF3 fold induction respect to basal conditions", "setting": "[7]", "result": 2.49}]}
